Data published in patent publication US6852735B1, “Siastatin B derivatives having a glycosidase inhibitory activity and processes for producing the same” (Zaidan Hojin Biseibutsu Kagaku Kenkyu Kai, priority 1998, dated 2005).
Structures can show the parent of a compound that is named as a salt.

| SMILES | melting point |
| --- | --- |
| CC(=O)NC1NCC(CO)C(O)C1O (stereo not drawn) (as salt: hydrochloride) [Formula (V), 3-decarboxy-4-epi-3-hydroxymethyl-siastain B] | 201 to 202 °C (dec.) |
| O=C(N[C@H]1NC[C@H](CO)[C@@H](O)[C@@H]1O)C(F)(F)F (as salt: hydrochloride) [Formula (X), 6-deacetamido-3-decarboxy-4-epi-3-hydroxymethyl-6-trifluoroacetamido-siastain B] | 88 to 90 °C |
